Reference: article PMC9424906 (Frontiers in Pharmacology, 2022)
“Also recorded” adds a separate entry of the source.

Legend:
CNT3 = molecular target: T1, CNT3 (Homo sapiens, UniProt Q9HAS3); assay: Nucleoside transporter uptake, CNT3-transfected MDCK cells; type: in vitro ADME
T1 construct: expressed in transfected cells; host or cells: MDCK-II
Text: (§1) Each condition was run in triplicate.

MDR1 [1] = details: MDCK-MDR1
MDR1 [2] = assay: in vitro; details: dog, MDCK-MDR1, 5 µM; for Papp A→B at 2 h, 5 µM: MDCK-MDR1, pH 7.4, Papp A to B; for Papp B→A at 2 h, 5 µM: MDCK-MDR1, pH 7.4, Papp B to A
ENT1 = ENT1 (Homo sapiens, UniProt Q99808); assay: Nucleoside transporter uptake, ENT1-transfected MDCK cells
ENT4 = ENT4 (Homo sapiens, UniProt Q7RTT9); assay: Nucleoside transporter uptake, ENT4-transfected MDCK cells
[3] = system: SARS-CoV-2 (USA_WA1/2020); assay: SARS-CoV-2 cytopathic effect (CPE) assay in Vero E6 cells; type: cell-based; details: Severe acute respiratory syndrome coronavirus 2, Vero C1008; Vero E6 cells, MOI 0.002, 72 h, n = 2; read-out: EC50, inhibition of SARS-CoV-2 CPE
[4] = Pharmacokinetics in Beagle dogs; type: in vivo, dog; details: for half-life: plasma
Experimental: (§2) Adult male C57BL/6 mice and Sprague Dawley rats were purchased from Charles River Laboratory (Wilmington, MA). PK studies for mice and rats were conducted at NIH animal facility (Bethesda, MD). In-life dog and monkey PK studies were conducted at Absorption System (San Diego, CA) and Frontage Labs (Concord, OH), respectively. Dogs and monkeys were fasted overnight prior to dose administrations. All experimental procedures were reviewed and approved by the Animal Care and Use Committee (ACUC) of the NIH Division of Veterinary Resources (DVR) or CRO labs for in-life studies.
The dosing volume was 1.0 mL/kg for both groups. Plasma (both IV and PO groups) and urine (IV group) samples were collected over a period of 48 h.
(§3) Blood samples from all groups and species were collected in K2EDTA tubes and stored on wet ice pending processing. Blood was centrifuged at 2200 g at 4°C for 10 min to isolate plasma. All samples were stored at -80°C until analysis.
(§4) Phoenix WinNonlin, version 8.1 (Certara, St. Louis, MO), was used to perform PK analysis with the non-compartmental approach (Models 200 and 201 for PO and IV datasets). The area under the plasma concentration vs. time curve (AUC) was calculated using the linear trapezoidal method. The terminal rate constant (λ) was obtained from the slope of at least three data points of the apparent terminal phase of the log-linear plasma concentration vs. time curve when available. AUC0–∞ was estimated as the sum of the AUC0–t (where t is the time of the last measurable concentration) and Ct/λ. The apparent terminal half-life (t½) was calculated as 0.693/λ. Bioavailability (F) was calculated using ratios of dose normalized AUC (AUC/Dose) obtained from PO and IV PK studies.

OAT3 = details: cited from earlier work
[5] = Pharmacokinetics in C57BL/6 mice; type: in vivo, mouse; details: male
Experimental: as §2
Male C57BL6 mice (n = 3 per time point, 24–40 g) were dosed at 5 mg/kg IV or 10 mg/kg oral gavage. The dosing volume was 3 mL/kg for IV and 10 ml/kg for PO. All dosing solutions were freshly prepared on the day of administration. Blood samples were collected over 24 h.
as §3, §4

[6] = 7-days dose range finding study in dogs; details: oral, 2000 mg/kg/day
CNT2 = molecular target: T2, CNT2 (Homo sapiens, UniProt O43868); assay: Nucleoside transporter uptake, CNT2-transfected MDCK cells; type: in vitro ADME; details: for Uptake compared to control cells: CNT2-transfected cells
T2 construct: expressed in transfected cells; host or cells: MDCK-II
T2 sequence (O43868 1-658): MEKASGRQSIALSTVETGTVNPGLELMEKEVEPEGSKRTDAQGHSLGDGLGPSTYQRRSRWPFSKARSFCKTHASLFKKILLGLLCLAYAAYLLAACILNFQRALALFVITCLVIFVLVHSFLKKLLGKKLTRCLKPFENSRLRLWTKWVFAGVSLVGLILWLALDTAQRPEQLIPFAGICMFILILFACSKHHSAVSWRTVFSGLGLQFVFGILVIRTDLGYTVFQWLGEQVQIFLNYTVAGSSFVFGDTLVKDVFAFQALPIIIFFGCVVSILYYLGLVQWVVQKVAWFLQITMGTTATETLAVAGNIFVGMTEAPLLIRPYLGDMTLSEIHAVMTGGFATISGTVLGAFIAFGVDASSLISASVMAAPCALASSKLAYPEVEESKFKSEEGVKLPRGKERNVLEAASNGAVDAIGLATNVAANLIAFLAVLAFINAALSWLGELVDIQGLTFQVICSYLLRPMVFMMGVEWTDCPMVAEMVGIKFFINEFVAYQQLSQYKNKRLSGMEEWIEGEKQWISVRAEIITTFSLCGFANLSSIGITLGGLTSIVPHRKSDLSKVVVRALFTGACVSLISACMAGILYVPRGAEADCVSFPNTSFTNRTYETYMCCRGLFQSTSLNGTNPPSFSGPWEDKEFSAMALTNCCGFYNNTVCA
Text: as §1

[7] = male, beagle, dog, in vivo, iv, 2 mg/kg
[8] = male, beagle, dog, in vivo, po, 5 mg/kg
[9] = C57BL/6, mouse, in vivo, iv, 5 mg/kg
[10] = C57BL/6, mouse, in vivo, po, 10 mg/kg

T1 sequence (Q9HAS3 whole entry): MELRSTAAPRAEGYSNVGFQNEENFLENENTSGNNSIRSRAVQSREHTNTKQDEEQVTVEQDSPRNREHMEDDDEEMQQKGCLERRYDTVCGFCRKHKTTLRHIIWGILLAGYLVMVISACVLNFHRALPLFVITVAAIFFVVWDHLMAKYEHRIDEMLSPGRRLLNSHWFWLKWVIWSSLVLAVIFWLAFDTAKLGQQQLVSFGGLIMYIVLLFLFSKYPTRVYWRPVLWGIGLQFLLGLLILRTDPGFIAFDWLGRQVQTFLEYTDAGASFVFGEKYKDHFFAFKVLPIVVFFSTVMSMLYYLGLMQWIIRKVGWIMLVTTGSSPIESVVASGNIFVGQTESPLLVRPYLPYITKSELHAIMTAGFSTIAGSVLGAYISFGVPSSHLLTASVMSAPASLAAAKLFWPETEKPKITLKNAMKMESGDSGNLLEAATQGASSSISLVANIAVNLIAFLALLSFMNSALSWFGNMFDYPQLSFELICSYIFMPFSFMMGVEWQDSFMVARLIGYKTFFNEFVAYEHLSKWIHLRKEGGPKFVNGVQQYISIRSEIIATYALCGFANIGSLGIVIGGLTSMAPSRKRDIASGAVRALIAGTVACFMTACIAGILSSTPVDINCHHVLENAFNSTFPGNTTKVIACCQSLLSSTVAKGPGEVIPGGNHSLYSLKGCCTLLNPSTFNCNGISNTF
Sequence of ENT1 (Q99808 whole entry): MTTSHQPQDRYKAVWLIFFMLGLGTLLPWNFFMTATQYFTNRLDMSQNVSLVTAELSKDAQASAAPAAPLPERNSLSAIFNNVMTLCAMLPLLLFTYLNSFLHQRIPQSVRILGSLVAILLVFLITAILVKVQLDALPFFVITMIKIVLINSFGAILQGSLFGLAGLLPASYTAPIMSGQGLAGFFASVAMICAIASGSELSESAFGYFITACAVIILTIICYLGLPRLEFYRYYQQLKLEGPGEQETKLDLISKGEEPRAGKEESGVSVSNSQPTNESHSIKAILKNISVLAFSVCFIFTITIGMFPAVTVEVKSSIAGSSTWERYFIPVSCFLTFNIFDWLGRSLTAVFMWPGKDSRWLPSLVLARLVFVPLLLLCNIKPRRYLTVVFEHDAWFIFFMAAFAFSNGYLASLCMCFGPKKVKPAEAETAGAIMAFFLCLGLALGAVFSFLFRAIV
Sequence of ENT4 (Q7RTT9 whole entry): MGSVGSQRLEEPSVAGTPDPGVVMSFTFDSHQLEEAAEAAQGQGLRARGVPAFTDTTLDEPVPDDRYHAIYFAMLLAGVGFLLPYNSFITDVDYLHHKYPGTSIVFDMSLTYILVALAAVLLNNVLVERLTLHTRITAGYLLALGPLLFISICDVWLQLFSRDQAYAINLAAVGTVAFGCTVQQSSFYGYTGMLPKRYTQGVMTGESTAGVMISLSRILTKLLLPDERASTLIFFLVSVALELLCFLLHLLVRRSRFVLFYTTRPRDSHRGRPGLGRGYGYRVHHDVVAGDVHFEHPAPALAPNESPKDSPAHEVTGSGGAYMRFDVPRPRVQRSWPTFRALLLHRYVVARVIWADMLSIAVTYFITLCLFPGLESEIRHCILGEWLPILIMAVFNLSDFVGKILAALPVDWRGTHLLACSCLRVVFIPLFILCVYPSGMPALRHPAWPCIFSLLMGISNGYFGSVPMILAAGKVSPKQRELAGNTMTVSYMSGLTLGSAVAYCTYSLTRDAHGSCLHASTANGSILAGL

For N#C[C@@]1(c2ccc3c(N)ncnn23)O[C@H](CO)[C@@H](O)[C@H]1O [GS-441524], the “Substrate of CNT3” value (CNT3) was “substrate”, the “Inhibition of uptake by reference inhibitor” value (CNT3; CNT3-transfected cells, reference inhibitor adenosine, 30 µM GS-441524) was 98.9% and the “Substrate of MDR1” value (MDR1 [1]) was “substrate”. It also gave a Papp A→B at 2 h, 5 µM (MDR1 [2]; 1 µM Valspodar) of 0.484 ×10⁻⁶ cm/s, a Papp A→B at 2 h, 5 µM (MDR1 [2]; no inhibitor) of 0.158 ×10⁻⁶ cm/s and a Papp B→A at 2 h, 5 µM (MDR1 [2]; 1 µM Valspodar) of 0.468 ×10⁻⁶ cm/s. For the same molecule, the Papp B→A at 2 h, 5 µM (MDR1 [2]; no inhibitor) was 0.521 ×10⁻⁶ cm/s, the “Inhibition of uptake by reference inhibitor” value (ENT1; ENT1-transfected cells, reference inhibitor NBMPR, 30 µM GS-441524) was 92.3% and the “Substrate of ENT1” value (ENT1; MDCK) was “substrate”. For the same molecule, the “Difference in uptake compared to control cells” value (ENT4) was “less than 2 fold”, the EC50 [3] was 1860 nM and the t1/2 ([4]; Dog, PO 5 mg/kg, 5 mg/kg) was 4.1 ± 1.1 h. The Vd ([4]; male, Beagle, dog, in vivo, iv, 2 mg/kg, Vdss) was 0.9 L/kg, the half-life ([4]; male, Beagle, dog, iv, 2 mg/kg, IV 2 mg/kg) was roughly 4 h and the half-life ([4]; male, Beagle, dog, po, 5 mg/kg, PO 5 mg/kg) was roughly 4 h. For the same molecule, the “Mean urinary excretion of unchanged parent drug” value [4, 7] was roughly 64%, the clearance [4, 7] was 4.1 ± 0.7 mL/min/kg and the Cmax [4, 8] was 6010 ng/mL. For the same molecule, the Tmax [4, 8] was 0.28 ± 0.19 h, the bioavailability [4, 8] was 85 ± 17% and the AUC(0-inf) ([4]; male, beagle, in vivo, Dog, PO 5 mg/kg) was 19000 ng·h/mL. For the same molecule, the “Substrate of OAT3” value (OAT3) was “not a substrate”, the Vd [5, 9] was 2.4 L/kg and the clearance [5, 9] was 26 mL/min/kg. It also gave an AUC(0-inf) [5, 10] of 2540 ng·h/mL, a Cmax [5, 10] of 582 ng/mL and a Tmax [5, 10] of 1.5 h. For the same molecule, the bioavailability [5, 10] was 39%, the half-life ([5]; C57BL/6, plasma, Mouse, PO 10 mg/kg) was 3.9 h and the “Tolerability at maximum feasible dose” value [6] was “well tolerated”. For the same molecule, the “Substrate of CNT2” value (CNT2) was “not a substrate; also recorded: unlikely to be a substrate”, the “Uptake compared to control cells” value (CNT2; 10 µM) was “higher than 2 fold” and the “Uptake compared to control cells” value (CNT2; 30 and 100 µM) was “less than 2 fold”.
